No end group written: not given here.
Legend:
[1] = system: model for FAS, C57B 1/6J mouse strain; assay: Fetal weights and fetal brain weights at E18 in mouse model for FAS; format: in vivo; conditions: pretreatment 30 min prior to alcohol on E8; for fetal weights (alcohol-induced growth restriction): NAPVSIPQ 20 μg, VIP 1 μg
Experimental: (§1) C57-B16J female mice (Jackson Labs) were kept under a 12 h light, 12 h dark regimen with food and water available at all times. The mice received humane animal care in compliance with the “Guideline for Care and Use of Experimental Animals.” Six week old females (21-24 grams) were mated with C57-B 16J males for 4 h. The presence of a vaginal plug was considered day 0 pregnancy.
(§2) A published well-delineated model for FAS was followed (Webster, W. S., et al., Neurobehav Tox, 2:227-34 (1980)). Animals were injected (intraperitoneal) on E8 with […] in saline (v/v) or vehicle alone at 0.030 ml/g body weight. Pretreatment with VIP and ADNF peptides (NAPVSIPQ (SEQ ID NO:2), SALLRSIPA (SEQ ID NO:1), NAPVSIPQ (SEQ ID NO:2)+SALLRSIPA (SEQ ID NO:1)) were given 30 min prior to alcohol. Dosages of the neuropeptides were NAPVSIPQ (SEQ ID NO:2) (20 μg) and (40 μg), SALLRSIPA (SEQ ID NO:1) (20 μg), NAPVSIPQ (SEQ ID NO:2) (20 μg)+(20 μg); VIP (1 μg). A NAPVSIPQ (SEQ ID NO:2)+SALLRSIPA (SEQ ID NO:1) control group without alcohol was studied. NAPVSIPQ (SEQ ID NO:2) was diluted in 50 μl DMSO and diluted in filtered Dulbecco's phosphate buffered saline (DPBS). SAL was dissolved and diluted in filtered DPBS. VIP was dissolved in […] glacial acetic acid and diluted in HPLC water and DPBS. Since the animals receiving alcohol were incapacitated for approximately 6 h following injection, food and water were withheld from all groups for the initial 6 hours after injection, to allow accurate assessment of fetal weights.
(§3) At E18 (embryonic gestation day 18), the number of live and demised fetuses was determined. Fetal weights and fetal brain weights were obtained for each fetus in the litter. The mean fetal weights were determined for each mother and this was used for statistical analysis.
(§4) The mean litter pup and fetal brain weight was calculated, with the litter mean used for all statistical analysis. Percent demises were calculated by dividing the number of demises by the total number of fetuses (live plus demises). Statistical analysis included ANOVA for continuous variables, Mann-Whitney U for nonparametic data, Chi square for categorical variables or Fisher's exact test where appropriate [Statview 4.5 (Abacus Concepts, Inc., Berkeley, Calif.)] with p<0.05 considered significant. Results are presented as mean±standard error unless specified.
(§5) The C57B 1/6J mouse strain provided a well-characterized model for FAS. Previous work with this strain has defined the effects of dosage and embryonic timing on maternal serum alcohol levels and embryonic effects (Webster et al., Neurobehav Tox, 2:227-34 (1980)), incorporated herein by reference. Intra-peritoneal treatment allowed for defined and reproducible dosages. […] The mice were injected with 25% ethyl alcohol in saline (v/v) or vehicle alone at 0.030 ml/g maternal body weight at 0900 on E8. Pretreatment with the study peptides was given 30 minutes prior to alcohol administration. […]
In the surviving E18 fetuses, fetal and fetal brain weights were evaluated to assess the protective effects of the ADNF peptides. […]

[2] = stated without test; cited from earlier work
[3] = system: model for FAS, C57B 1/6J mouse strain; assay: Fetal demise at E18 in mouse model for FAS (alcohol on E8, peptide pretreatment); format: in vivo; conditions: for percentage of fetal demises: E18, pretreatment 30 min prior to alcohol (25% ethyl alcohol i.p., 0.030 ml/g) on E8, NAPVSIPQ 20 μg, SALLRSIPA 20 μg, VIP 1 μg, combination 20 μg+20 μg; for alcohol toxicity as measured by fetal demises and weight (summary): summary of fetal demises and weights (fetal and fetal brain) at E18
Experimental: as §1, §2, §3, §4, §5
To assess the protective effects of the ADNF peptides in the most severe form of stress, the number of fetal death was determined. […]

[4] = surviving E18 fetuses, SALLRSIPA 20 μg, combination 20 μg+20 μg

Substance	alcohol-induced growth restriction ([1]; double dosage of NAPVSIPQ (40 μg), E18)	fetal weights (alcohol-induced growth restriction) [1, 4]	crossing of the blood brain barrier [2]	percentage of fetal demises [3]	alcohol toxicity as measured by fetal demises and weight (summary) [3]	fetal brain weights (alcohol-induced fetal brain weight reduction) [1, 4]
NAPVSIPQ [Asn-Ala-Pro-Val-Ser-Ile-Pro-Gln]	moderately prevented the alcohol-induced growth restriction	moderately prevented the alcohol-induced growth restrictions	cross the blood brain barrier	prevented the demises seen with alcohol	moderately prevented alcohol toxicity	
SALLRSIPA [Ser-Ala-Leu-Leu-Arg-Ser-Ile-Pro-Ala]		did not prevent the alcohol-induced fetal weight reduction	cross the blood brain barrier	unable to bring the fetal demise rate to control levels	moderately prevented alcohol toxicity	moderately prevented the alcohol-induced fetal brain weight reduction
vasoactive intestinal peptide (HSDAVFTDNYTRLRKQMAVKKYLNSILN; ends and bridges not checked; UniProt P01282 125-152, looked up) [VIP, neuropeptide that is a regulator of early postimplantation mouse embryonic growth, reference compound]		improved embryonic weights; however, the effect was intermediate		slightly improved the fetal demise rate		

— patent US6933277B2, “Prevention of fetal alcohol syndrome and neuronal cell death with ADNF polypeptides” (The United States of America as represented by the …, priority 1999, dated 2005)
